Test results: ChEMBL document CHEMBL1149826, “Chemical constituents and diversity of Ligularia lankongensis in Yunnan Province of China” (2008)
Calls of active or inactive are those of the source. No cut-off for these calls is given here.

Tested on: Bacillus subtilis
Experiment: Antibacterial activity against Bacillus subtilis PCI219 assessed as inhibition zone diameter at […] after 24 hrs by paper disk diffusion assay
Format: functional

Row | SMILES | Activity | zone of inhibition at 10 mg/kg (PCI219, 24 h, read-out: IZ) [mm]
1 | C=C(C(CC1OC1(C)C)OC(=O)/C(C)=C\C)[C@H]1[C@H](OC(=O)/C(C)=C\C)[C@H]2O[C@@]2(C)[C@@H](O)[C@H]1OC(=O)/C(C)=C\C (some centres not stated) | Active | –
2 | CC[C@H]1OC(=O)[C@H](C)[C@@H](O[C@H]2C[C@@](C)(OC)[C@@H](O)[C@H](C)O2)[C@H](C)[C@@H](O[C@@H]2O[C@H](C)C[C@H](N(C)C)[C@H]2O)[C@](C)(O)C[C@@H](C)C(=O)[C@H](C)[C@@H](O)[C@]1(C)O [ERYTHROMYCIN] | – | 31
